The text below walks through data of US20250268903A1, “RXFP1 AGONISTS” (BRISTOL-MYERS SQUIBB COMPANY, priority 2021, published 2025).

The target in this test is T1, human RXFP1 (Homo sapiens, UniProt Q9HBX9).
T1 construct: expressed in transfected cells
T1 sequence (Q9HBX9 1-757): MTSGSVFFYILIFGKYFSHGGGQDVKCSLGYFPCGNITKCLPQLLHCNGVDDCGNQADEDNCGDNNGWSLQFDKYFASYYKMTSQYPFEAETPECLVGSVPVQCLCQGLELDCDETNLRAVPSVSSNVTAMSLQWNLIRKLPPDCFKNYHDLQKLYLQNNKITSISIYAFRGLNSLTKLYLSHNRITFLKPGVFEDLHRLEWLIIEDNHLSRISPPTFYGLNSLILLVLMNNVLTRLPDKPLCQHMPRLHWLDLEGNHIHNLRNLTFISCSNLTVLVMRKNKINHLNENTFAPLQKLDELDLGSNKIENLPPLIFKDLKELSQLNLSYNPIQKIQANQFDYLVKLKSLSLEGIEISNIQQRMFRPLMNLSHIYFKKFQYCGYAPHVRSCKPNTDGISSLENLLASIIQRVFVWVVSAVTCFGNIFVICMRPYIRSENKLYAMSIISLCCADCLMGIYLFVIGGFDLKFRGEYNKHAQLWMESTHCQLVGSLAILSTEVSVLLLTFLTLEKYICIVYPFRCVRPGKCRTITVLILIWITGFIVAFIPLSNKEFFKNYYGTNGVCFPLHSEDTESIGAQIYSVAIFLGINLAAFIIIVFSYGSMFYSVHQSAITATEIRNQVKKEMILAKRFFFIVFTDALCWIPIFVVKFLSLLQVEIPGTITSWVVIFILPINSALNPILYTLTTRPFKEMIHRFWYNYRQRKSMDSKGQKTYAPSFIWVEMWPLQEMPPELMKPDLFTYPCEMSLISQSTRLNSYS
Kind of test: hRXFP1 HEK293 cAMP assay (HTRF). The test is classed as cell-based. As to conditions: HEK293 cells stably expressing human RXFP1, 30 min at room temperature. The procedure, abridged:
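hRXFP1-HEK293 stable line; HBSS + Ca/Mg, 20 mM HEPES, 0.05% BSA, 0.5 mM IBMX; cpd 0.010 nM–50 μM, 2% DMSO; 30 min RT; lysis, HTRF cAMP detection; 4-PL fit.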
In general terms: cAMP levels reflect the balance of adenylyl cyclase and phosphodiesterase activity.
Consider `COc1ccc(C[C@@H]2CCC(=O)N2)cc1C(=O)NC1C2CCC(/C2=C/C(F)(F)F)[C@@H]1C(=O)Nc1ccc(F)c(C(F)(F)F)c1` (stereo partly drawn) [Example 183, (7Z)-N-[4-fluoro-3-(trifluoromethyl)phe-nyl]-3-(2-methoxy-5-{[(2S)-5-oxopyrrolidin-2-yl]methyl}benzamido)-7-(2,2,2-trifluoroethylidene)bi-cyclo[2.2.1]heptane-2-carboxamide], for which the EC50 is 850 nM. This lies in the sub-micromolar range.
Take `COc1ccc(C2CC3CC(CO)CC32)cc1C(=O)N[C@H]1[C@@H](C(=O)Nc2ccc(F)c(C(F)(F)F)c2)[C@H]2CC[C@@H]1/C2=C\C1CC1` (single isomer, unassigned) [Example 348]: a half-maximal effect (EC50) was put at 34 nM. This EC50 lies about 25-fold lower than the previous one.
For the molecule `COc1ccc(COC2CC2)cc1C(=O)N[C@@H]1C2CCC(/C2=C/C2CC2)[C@@H]1C(=O)Nc1ccc(F)c(C(F)(F)F)c1` (stereo partly drawn) [Example 19, (2S,3R,7Z)-3-[5-(cyclopropoxymethyl)-2-methoxybenzamido]-7-(cyclopropylmethyli-dene)-N-[4-fluoro-3-(trifluoromethyl)phe-nyl]bicyclo[2.2.1]hept-ane-2-carboxamide], the EC50 was 125 nM. This EC50 is about 3.7-fold higher than that of the molecule before.
Take `COc1ccc(C2CCCC(N3CC(F)(F)C3)C2)cc1C(=O)N[C@H]1[C@@H](C(=O)Nc2ccc(F)c(C(F)(F)F)c2)[C@H]2CC[C@@H]1/C2=C\C(F)(F)F` (stereo partly drawn) [Example 355, (1R,2S,3R,4R,7Z)-3-[5-13-(3,3-difluoroazetidin-1-yl)cyclohexyl]-2-methoxybenzamido 3-N-[4-fluoro-3-(trifluoromethyl)phenyl]-7-(2,2,2-trifluoroethylidene) bicyclo[2.2.1] heptane-2-carboxamide]: the response was half-maximal at 4960 nM (EC50).
`COc1ccc(/C=C/C(=O)N2CCC(S(C)(=O)=O)CC2)cc1C(=O)N[C@H]1[C@@H](C(=O)Nc2ccc(F)c(C(F)(F)F)c2)[C@H]2CC[C@@H]1/C2=C\C1CC1` [Example 317, (1R,2S,3R,4R,7Z)-7-(cyclopropyl-methylidene)-N-[4-fluoro-3-(trifluoromethyl)phenyl]-3-{5-[(1E)-3-(4-methanesulfonyl-piperidin-1-yl)-3-oxoprop-1-en-1-yl]-2-methoxybenzamido} bicyclo[2.2.1]heptane-2-carboxamide] registered an EC50 of 140 nM.
The molecule “(7Z)-7-(4,4- dimethylpentylidene)- N-[4-fluoro-3- (trifluoromethyl)phe- nyl]-3-[5-(3- hydroxypropyl)-2- methoxybenzamido] bicyclo[2.2.1]heptane- 2-carboxamide [Example 164]” showed an EC50 of 67 nM. Against the preceding molecule, the EC50 is about 2.1-fold lower.
In turn, `COc1ccc(/C=C(\C)C(=O)N2CCC(O)CC2)cc1C(=O)N[C@H]1[C@@H](C(=O)Nc2ccc(F)c(C(F)(F)F)c2)[C@H]2CC[C@@H]1/C2=C\C(F)(F)F` [Example 312, (1R,2S,3R,4R,7Z)-N-[4-fluoro-3-(trifluoromethyl)phenyl]-3-{5-[(1E)-3-(4-hydroxypiperidin-1-yl)-2-methyl-3-oxoprop-1-en-1-yl]-2-methoxybenzamido}-7-(2,2,2-trifluoroethylidene) bicyclo[2.2.1]heptane-2-carboxamide] came in with a half-maximal effective concentration (EC50) of 31.4 nM.
Molecule `COc1ccc(C2CCCC(OC(=O)Nc3ccccc3)C2)cc1C(=O)N[C@@H]1C2CCC(/C2=C/C(F)(F)F)[C@@H]1C(=O)Nc1ccc(F)c(C(F)(F)F)c1` (single isomer, unassigned) [Example 42] showed a half-maximal effective concentration (EC50) of 214 nM.
Regarding `COc1ccc(C(C)CCO)cc1C(=O)N[C@@H]1C2CCC(/C2=C/C(F)(F)F)[C@@H]1C(=O)Nc1ccc(F)c(C(F)(F)F)c1` (single isomer, unassigned) [Example 61], the midpoint of the response, the EC50, lay at 603 nM.
`COc1ccc(C#C[C@H](C)O)cc1C(=O)N[C@@H]1C2CCC(/C2=C/C(F)(F)F)[C@@H]1C(=O)Nc1ccc(F)c(C(F)(F)F)c1` (stereo partly drawn) [Example 71, (2S,3R,7Z)-N-[4-fluoro-3-(trifluoromethyl)phe-nyl]-3-{5-[(3S)-3-hydroxybut-1-yn-1-yl]-2-methoxybenzamido}-7-(2,2,2-trifluoroethylidene)bi-cyclo[2.2.1]heptane-2-carboxamide] returned a 50% effective concentration (EC50) of 118 nM.
As for `COc1ccc(CCCNC(=O)C2CCOCC2)cc1C(=O)N[C@@H]1C2CCC(/C2=C/C(F)(F)F)[C@@H]1C(=O)Nc1ccc(F)c(C(F)(F)F)c1` (stereo partly drawn) [Example 115, N-[3-(3-{[(2R,3S,7Z)-3-{[4-fluoro-3-(trifluoromethyl)phe-nyl]carbamoyl}-7-(2,2,2-trifluoroethylidene)bi-cyclo[2.2.1]heptan-2-yl]carbamoyl}-4-methoxyphenyl)pro-pyl]oxane-4-carboxamide], the figure is 536 nM; as for `COc1ccc(COC2(C(=O)O)CC2)cc1C(=O)N[C@@H]1C2CCC(/C2=C/C2CC2)[C@@H]1C(=O)Nc1ccc(F)c(C(F)(F)F)c1` (stereo partly drawn) [Example 18, 1-[(3-{[(2R,3S,7Z)-7-(cyclopropylmethyli-dene)-3-{[4-fluoro-3-(trifluoromethyl)phe-nyl]carbamoyl}bicy-clo[2.2.1]heptan-2-yl]carbamoyl}-4-methoxyphenyl)meth-oxy]cyclopropane-1-carboxylic acid], 124 nM.
Take `COc1ccc(S(=O)(=O)N2CC3CCC(C2)O3)cc1C(=O)N[C@H]1[C@@H](C(=O)Nc2ccc(F)c(C(F)(F)F)c2)[C@H]2CC[C@@H]1/C2=C\C(F)(F)F` [Example 214, (1R,2S,3R,4R,7Z)-N-[4-fluoro-3-(trifluoromethyl)phenyl]-3-(2-methoxy-5-{8-oxa-3-azabicyclo[3.2.1]octane-3-sulfonyl}benzamido)-7-(2,2,2-trifluoroethylidene) bicyclo[2.2.1] heptane-2-carboxamide]: the EC50 worked out at 272 nM.
Molecule `COc1ccc(/C(=C/CO)C(F)(F)F)cc1C(=O)N[C@H]1[C@@H](C(=O)Nc2ccc(F)c(C(F)(F)F)c2)[C@H]2CC[C@@H]1/C2=C\C1CC1` [Example 282, (1R,2S,3R,4R,Z)-7-(cyclopropylmethylene)-N-(4-fluoro-3-(trifluoromethyl)phenyl)-3-(2-methoxy-5-((Z)-1,1,1-trifluoro-4-hydroxybut-2-en-2-yl)benzamido) bicyclo[2.2.1]heptane-2-carboxamide] showed an EC50 of 281 nM.
`COc1ccc(CCC(C)(C)O)cc1C(=O)NC1C2CCC(/C2=C/C(C)C)[C@@H]1C(=O)Nc1ccc(F)c(C(F)(F)F)c1` (some centres unmarked) [Example 158, (7Z)-N-[4-fluoro-3-(trifluoromethyl)phe-nyl]-3-[5-(3-hydroxy-3-methylbutyl)-2-methoxybenzamido]-7-(2-methylpropylidene)bi-cyclo[2.2.1]heptane-2-carboxamide]: the EC50 was found to be 9 nM.
Turning to `COc1c(F)cc(C(=O)N2CC3(C2)CC(O)(C(F)(F)F)C3)cc1C(=O)N[C@H]1[C@@H](C(=O)N[C@H](C)C2(C)CC2)[C@H]2CC[C@@H]1/C2=C\C1CC1` [Example 372, (1R,2S,3R,4R,7Z)-7-(cyclopropyl-methylidene)-3-{3-fluoro-5-[6-hydroxy-6-(trifluoromethyl)-2-azaspiro[3.3]heptane-2-carbonyl]-2-methoxybenzamido}-N-[(1R)-1-(1-methylcyclopropyl)ethyl]bicyclo[2.2.1] heptane-2-carboxamide], the EC50 was 5.9 nM.
For `COc1ccc(C2CC2C(=O)N2CCC(O)CC2)cc1C(=O)N[C@H]1[C@@H](C(=O)Nc2ccc(F)c(C(F)(F)F)c2)[C@H]2CC[C@@H]1/C2=C\C(F)(F)F` (single isomer, unassigned) [Example 323], a half-maximal response (EC50) required 21.5 nM.
The figure for `COc1ccc(CC2CCOCC2)cc1C(=O)NC1C2CCC(/C2=C/C2CCC2)[C@@H]1C(=O)Nc1ccc(F)c(C(F)(F)F)c1` (some centres unmarked) [Example 194, (7Z)-7-(cyclobutylmethyli-dene)-N-[4-fluoro-3-(trifluoromethyl)phe-nyl]-3-{2-methoxy-5-[(oxan-4-yl)methyl]benzamido} bicyclo[2.2.1]hept-ane-2-carboxamide] is 76 nM.
The figure for `COC(=O)C1CC(c2ccc(OC)c(C(=O)N[C@H]3[C@@H](C(=O)Nc4ccc(F)c(C(F)(F)F)c4)[C@H]4CC[C@@H]3/C4=C\C(F)(F)F)c2)C1` (stereo partly drawn) [Example 329, methyl 3-(3-{[(1R,2R,3S,4R,7Z)-3-{[4-fluoro-3-(trifluoromethyl)phenyl]carbamoyl}-7-(2,2,2-trifluoroethylidene)bicyclo[2.2.1]heptan-2-yl]carbamoyl}-4-methoxyphenyl) cyclobutane-1-carboxylate] is 210 nM; for `COc1ccc(CCCNCC(O)(C(F)(F)F)C(F)(F)F)cc1C(=O)N[C@H]1[C@@H](C(=O)Nc2ccc(F)c(C(F)(F)F)c2)[C@H]2CC[C@@H]1/C2=C\C(F)(F)F` [Example 117, (1R,2S,3R,4R,Z)—N-(4-fluoro-3-(trifluoromethyl)phenyl)-3-(2-methoxy-5-(3-((3,3,3-trifluoro-2-hydroxy-2-(trifluoromethyl)propyl)amino)propyl)benzamido)-7-(2,2,2-trifluoroethylidene) bicyclo[2.2.1]heptane-2-carboxamide] it is 1240 nM.

In general, EC50 refers to the concentration at which the effect is half-maximal. A high value points to a need for much substance.
